From patent US10112950B2, “Substituted imidazo[1,2-a]pyrazines as LSD1 inhibitors” (Incyte Corporation, priority 2014, dated 2018)
pIC50: −log10 of the molar value.

Target: LSD-1 enzyme (Homo sapiens (Human), UniProt O60341)
Assay: LANCE LSD1/KDM1A demethylase assay (LSD1 histone demethylase biochemical assay)
Details: 1 nM LSD-1 enzyme, 1 hour preincubation at 25° C., 0.4 μM Biotin-labeled Histone H3 peptide substrate
Experimental: LSD1 Histone Demethylase Biochemical Assay
LANCE LSD1/KDM1A demethylase assay-10 μL of 1 nM LSD-1 enzyme (ENZO BML-SE544-0050) in the assay buffer (50 mM Tris, pH 7.5, 0.01% Tween-20, 25 mM NaCl, 5 mM DTT) were preincubated for 1 hour at 25° C. with 0.8 μL compound/DMSO dotted in black 384 well polystyrene plates. […] Reactions were stopped by addition of 10 μL 1× LANCE Detection Buffer (PerkinElmer CR97-100) supplemented with 1.5 nM Eu-anti-unmodified H3K4 Antibody (PerkinElmer TRF0404), and 225 nM LANCE Ultra Streptavidin (PerkinElmer TRF102) along with 0.9 mM Tranylcypromine-HCl (Millipore 616431). After stopping the reactions plates were incubated for 30 minutes and read on a PHERAstar FS plate reader (BMG Labtech).

SMILES | pIC50
Cc1ccc(-c2c(-c3ccc(C#N)cc3)nc(OC[C@@H]3CCNC3)c3nc(CN(C)C)cn23)cc1 [Example 42, 4-{2-[(dimethylamino)methyl]-5-(4-methylphenyl)-8-[(3R)-pyrrolidin-3-ylmethoxy]imidazol[1,2-a]pyrazin-6-yl}benzonitrile] | ≥ 7.30
Cc1ccc(-c2c(-c3ccc(C#N)cc3)nc(OC[C@@H]3CCNC3)c3nc(CN4CCC4)cn23)cc1 [Example 43, 4-{2-(azetidin-1-ylmethyl)-5-(4-methylphenyl)-8-[(3R)-pyrrolidin-3-ylmethoxy]imidazol[1,2-a]pyrazin-6-yl}benzonitrile] | ≥ 7.30
Cc1ccc(-c2c(-c3ccc(C#N)cc3)nc(OC[C@@H]3CCNC3)c3nc(CNCC4CC4)cn23)cc1 [Example 44, 4-{2-{[(cyclopropylmethyl)amino]methyl}-5-(4-methylphenyl)-8-[(3R)-pyrrolidin-3-ylmethoxy]imidazo[1,2-a]pyrazin-6-yl}benzonitrile] | ≥ 7.30
Cc1ccc(-c2c(-c3ccc(C#N)cc3)nc(OC[C@@H]3CCNC3)c3nc(CNc4ccon4)cn23)cc1 [Example 45, 4-{2-[(isoxazol-3-ylamino)methyl]-5-(4-methylphenyl)-8-[(3R)-pyrrolidin-3-ylmethoxy]imidazo[1,2-a]pyrazin-6-yl}benzonitrile] | ≥ 7.30
Cc1ccc(-c2c(-c3ccc(C#N)cc3)nc(OC[C@@H]3CCN(C)C3)c3nc(CN(C)C)cn23)cc1 [Example 46, 4-(2-[(dimethylamino)methyl]-5-(4-methylphenyl)-8-{[(3R)-1-methylpyrrolidin-3-yl]methoxy}imidazo[1,2-a]pyrazin-6-yl)benzonitrile] | ≥ 7.30
Cc1ccc(-c2c(-c3ccc(C#N)cc3)nc(OC[C@@H]3CCNC3)c3nc(CCN(C)C)cn23)cc1 [Example 47, 4-{2-[2-(dimethylamino)ethyl]-5-(4-methylphenyl)-8-[(3R)-pyrrolidin-3-ylmethoxy]imidazo[1,2-a]pyrazin-6-yl}benzonitrile] | ≥ 7.30
CN1CCC[C@@H](COc2nc(-c3ccc(C#N)cc3)c(-c3ccc(N(C)CC4CCCO4)nc3)n3ccnc23)C1 (stereo partly drawn) [Example 52, 4-(8-{[(3R)-1-methylpiperidin-3-yl]methoxy}-5-{6-[methyl(tetrahydrofuran-2-ylmethyl)amino]pyridin-3-yl}imidazo[1,2-a]pyrazin-6-yl)benzonitrile] | ≥ 7.30
CN1CCC[C@@H](COc2nc(-c3ccc(C#N)cc3)c(-c3cnc4c(ccn4C)c3)n3ccnc23)C1 [Example 53, 4-[8-{[(3R)-1-methylpiperidin-3-yl]methoxy}-5-(1-methyl-1H-pyrrolo[2,3-b]pyridin-5-yl)imidazo[1,2-a]pyrazin-6-yl]benzonitrile] | ≥ 7.30
CN(C)C1CCN(c2nc(-c3ccc(C#N)cc3)c(-c3ccc(N4CCCC4=O)nc3)n3ccnc23)CC1 [Example 57, 4-{8-[4-(dimethylamino)piperidin-1-yl]-5-[6-(2-oxopyrrolidin-1-yl)pyridin-3-yl]imidazo[1,2-a]pyrazin-6-yl}benzonitrile] | ≥ 7.30
CN(C)C1CCN(c2nc(-c3ccc(C#N)cc3)c(-c3cnc4c(cnn4C)c3)n3ccnc23)CC1 [Example 58, 4-[8-[4-(dimethylamino)piperidin-1-yl]-5-(1-methyl-1H-pyrazolo[3,4-b]pyridin-5-yl)imidazo[1,2-a]pyrazin-6-yl]benzonitrile] | ≥ 7.30
CN(C)C1CCN(c2nc(-c3ccc(C#N)cc3)c(-c3ccc4c(c3)oc(=O)n4C)n3ccnc23)CC1 [Example 59, 4-[8-[4-(dimethylamino)piperidin-1-yl]-5-(3-methyl-2-oxo-2,3-dihydro-1,3-benzoxazol-6-yl)imidazo[1,2-a]pyrazin-6-yl]benzonitrile] | ≥ 7.30
CN1C(=O)COc2cc(-c3c(-c4ccc(C#N)cc4)nc(N4CCC(N(C)C)CC4)c4nccn34)ccc21 [Example 60, 4-[8-[4-(dimethylamino)piperidin-1-yl]-5-(4-methyl-3-oxo-3,4-dihydro-2H-1,4-benzoxazin-7-yl)imidazo[1,2-a]pyrazin-6-yl]benzonitrile] | ≥ 7.30
CN(C)C1CCN(c2nc(-c3ccc(C#N)cc3)c(-c3cc4oc(=O)n(C)c4cc3F)n3ccnc23)CC1 [Example 62, 4-[8-[4-(dimethylamino)piperidin-1-yl]-5-(5-fluoro-3-methyl-2-oxo-2,3-dihydro-1,3-benzoxazol-6-yl)imidazo[1,2-a]pyrazin-6-yl]benzonitrile] | ≥ 7.30
Cn1ncc2cc(-c3c(-c4ccc(C#N)cc4)nc(OC[C@@H]4CCCN(CCO)C4)c4nccn34)ccc21 [Example 65, 4-[8-{[(3R)-1-(2-hydroxyethyl)piperidin-3-yl]methoxy}-5-(1-methyl-1H-indazol-5-yl)imidazo[1,2-a]pyrazin-6-yl]benzonitrile] | ≥ 7.30
CN(C)C1CCN(c2nc(-c3ccc(C#N)cc3)c(-c3cnc4c(c3)oc(=O)n4C)n3ccnc23)CC1 [Example 66, 4-[8-[4-(dimethylamino)piperidin-1-yl]-5-(3-methyl-2-oxo-2,3-dihydro[1,3]oxazolo[4,5-b]pyridin-6-yl)imidazo[1,2-a]pyrazin-6-yl]benzonitrile] | ≥ 7.30
CN(C)C1CCN(c2nc(-c3ccc(C#N)cc3)c(-c3ccc(N4CCOC4=O)nc3)n3ccnc23)CC1 [Example 67, 4-{8-[4-(dimethylamino)piperidin-1-yl]-5-[6-(2-oxo-1,3-oxazolidin-3-yl)pyridin-3-yl]imidazo[1,2-a]pyrazin-6-yl}benzonitrile] | ≥ 7.30
CN(C)C1CCN(c2nc(-c3ccc(C#N)cc3)c(-c3ccc4c(c3)c(N)nn4C)n3ccnc23)CC1 [Example 68, 4-{5-(3-amino-1-methyl-1H-indazol-5-yl)-8-[4-(dimethylamino)piperidin-1-yl]imidazo[1,2-a]pyrazin-6-yl}benzonitrile] | ≥ 7.30
Cc1ccc(-c2c(-c3ccc(C#N)cc3)nc(OC[C@@H]3CCCN(C)C3)c3nccn23)cc1C#N [Example 69, 5-(6-(4-cyanophenyl)-8-{[(3R)-1-methylpiperidin-3-yl]methoxy}imidazo[1,2-a]pyrazin-5-yl)-2-methylbenzonitrile] | ≥ 7.30
Cc1ccc(-c2c(-c3ccc(C#N)cc3)nc(OC[C@@H]3CCCN(C)C3)c3nccn23)cc1CO [Example 70, 4-(5-[3-(hydroxymethyl)-4-methylphenyl]-8-{[(3R)-1-methylpiperidin-3-yl]methoxy}imidazo[1,2-a]pyrazin-6-yl)benzonitrile] | ≥ 7.30
Cc1cc(-c2c(-c3ccc(C#N)cc3)nc(OC[C@@H]3CCCN(C)C3)c3nccn23)ccc1CO [Example 72, 4-(5-[4-(hydroxymethyl)-3-methylphenyl]-8-{[(3R)-1-methylpiperidin-3-yl]methoxy}imidazo[1,2-a]pyrazin-6-yl)benzonitrile] | ≥ 7.30
CN1CCC[C@@H](COc2nc(-c3ccc(C#N)cc3)c(-c3ccc4c(c3)C(O)CC4)n3ccnc23)C1 (stereo partly drawn) [Example 73, 4-(5-(3-hydroxy-2,3-dihydro-1H-1-inden-5-yl)-8-{[(3R)-1-methylpiperidin-3-yl]methoxy}imidazo[1,2-a]pyrazin-6-yl)benzonitrile] | ≥ 7.30
CN1CCC[C@@H](COc2nc(-c3ccc(C#N)cc3)c(-c3cc(F)c4c(c3)C(O)CC4)n3ccnc23)C1 (stereo partly drawn) [Example 79, 4-(5-(7-fluoro-3-hydroxy-2,3-dihydro-1H-inden-5-yl)-8-{[(3R)-1-methylpiperidin-3-yl]methoxy}imidazo[1,2-a]pyrazin-6-yl)benzonitrile] | ≥ 7.30
CN1CCC[C@@H](COc2nc(-c3ccc(C#N)cc3)c(-c3ccc4c(c3)CCC4O)n3ccnc23)C1 (stereo partly drawn) [Example 80, 4-(5-(1-hydroxy-2,3-dihydro-1H-inden-5-yl)-8-{[(3R)-1-methylpiperidin-3-yl]methoxy}imidazo[1,2-a]pyrazin-6-yl)benzonitrile] | ≥ 7.30
Cc1cc(-c2c(-c3ccc(C#N)cc3)nc(OC[C@@H]3CCCN(C)C3)c3nccn23)cc(F)c1CO [Example 81, 4-(5-[3-fluoro-4-(hydroxymethyl)-5-methylphenyl]-8-{[(3R)-1-methylpiperidin-3-yl]methoxy}imidazo[1,2-a]pyrazin-6-yl)benzonitrile] | ≥ 7.30
COC(=O)N(C)Cc1ccc(-c2c(-c3ccc(C#N)cc3)nc(OC[C@@H]3CCCN(C)C3)c3nccn23)cc1F [Example 85, methyl [4-(6-(4-cyanophenyl)-8-{[(3R)-1-methylpiperidin-3-yl]methoxy}imidazo[1,2-a]pyrazin-5-yl)-2-fluorobenzyl]methylcarbamate] | ≥ 7.30
Cc1ccc(-c2c(-c3ccc(C#N)cc3)nc(OC[C@@H]3CCCN(C)C3)c3nccn23)cc1C(C)O (stereo partly drawn) [Example 87, 4-(5-[3-(1-hydroxyethyl)-4-methylphenyl]-8-{[(3R)-1-methylpiperidin-3-yl]methoxy}imidazo[1,2-a]pyrazin-6-yl)benzonitrile] | ≥ 7.30
CN1CCC[C@@H](COc2nc(-c3ccc(C#N)cc3)c(-c3cc(F)c4c(c3)CCC4O)n3ccnc23)C1 (stereo partly drawn) [Example 88, 4-(5-(7-fluoro-1-hydroxy-2,3-dihydro-1H-inden-5-yl)-8-{[(3R)-1-methylpiperidin-3-yl]methoxy}imidazo[1,2-a]pyrazin-6-yl)benzonitrile] | ≥ 7.30
Cc1ccc(-c2c(-c3ccc(C#N)cc3)nc(OC[C@@H]3CCCN(C)C3)c3nccn23)c(CO)c1 [Example 90, 4-(5-[2-(hydroxymethyl)-4-methylphenyl]-8-{[(3R)-1-methylpiperidin-3-yl]methoxy}imidazo[1,2-a]pyrazin-6-yl)benzonitrile] | ≥ 7.30
